The record followed here is patent US11964953B2, “Substituted aminothiazoles as DGKzeta inhibitors for immune activation” (Bayer Aktiengesellschaft, priority 2020, dated 2024).

For this test, the target named is human DGKζ (Homo sapiens (Human), UniProt Q13574). The experiment in a line: Human DGKζ kinase activity inhibition assay (ADP-Glo). In kind it is biochemical. The note with it: in vitro human DGKζ kinase activity inhibition assay; read-out: IC50. The method in brief:
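Enzyme was C-terminally FLAG-tagged full-length recombinant human DGKζ from baculovirus-infected insect cells. Substrate preparation used octyl-β-D-glucopyranoside in 50 mM MOPS pH 7.4 with sonication; ADP generated was quantified by ADP-Glo luminescence as activity measure.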
(In general: ADP-Glo turns the ADP formed in a reaction into a luminescent signal.)

Each structure is given as a SMILES string.

Chain of human DGKζ (Q13574 other isoform, or with tags, fused parts or gaps): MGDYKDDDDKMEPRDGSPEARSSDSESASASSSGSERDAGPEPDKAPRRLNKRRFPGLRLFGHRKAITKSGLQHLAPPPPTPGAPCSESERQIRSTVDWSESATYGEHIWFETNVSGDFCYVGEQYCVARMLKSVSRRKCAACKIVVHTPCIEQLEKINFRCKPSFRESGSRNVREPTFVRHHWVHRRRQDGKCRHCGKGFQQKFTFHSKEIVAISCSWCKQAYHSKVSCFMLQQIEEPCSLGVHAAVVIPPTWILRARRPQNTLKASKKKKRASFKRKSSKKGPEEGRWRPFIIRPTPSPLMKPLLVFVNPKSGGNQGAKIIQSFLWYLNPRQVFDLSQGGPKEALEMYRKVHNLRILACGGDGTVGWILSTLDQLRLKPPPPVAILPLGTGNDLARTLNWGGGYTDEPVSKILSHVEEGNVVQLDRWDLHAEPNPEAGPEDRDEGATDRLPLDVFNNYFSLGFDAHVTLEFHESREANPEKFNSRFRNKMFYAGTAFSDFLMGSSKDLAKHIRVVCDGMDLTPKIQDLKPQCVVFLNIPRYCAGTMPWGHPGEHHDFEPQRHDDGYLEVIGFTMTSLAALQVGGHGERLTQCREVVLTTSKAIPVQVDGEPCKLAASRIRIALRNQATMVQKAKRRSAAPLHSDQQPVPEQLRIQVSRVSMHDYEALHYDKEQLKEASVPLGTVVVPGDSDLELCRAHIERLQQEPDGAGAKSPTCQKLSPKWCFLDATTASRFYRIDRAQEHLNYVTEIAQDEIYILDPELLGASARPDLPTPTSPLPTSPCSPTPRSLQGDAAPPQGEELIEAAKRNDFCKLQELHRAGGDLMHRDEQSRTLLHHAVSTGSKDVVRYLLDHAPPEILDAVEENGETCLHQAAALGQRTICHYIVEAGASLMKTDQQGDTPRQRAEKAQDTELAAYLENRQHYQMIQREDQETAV

As to `CC(C(N)=O)N(c1ccc(OC(F)F)c(F)c1)c1nc(N)c(C(=O)c2ccc(OC(F)F)nc2)s1` (racemic) [Example 209, rac-2-[N-[4-amino-5-[6-(difluoromethoxy)pyridine-3-carbonyl]thiazol-2-yl]-4-(difluoromethoxy)-3-fluoro-anilino]propanamide], the half-maximal inhibitory concentration (IC50) amounted to 45 nM.

As to `CC(C(N)=O)N(c1ccc(OC(F)F)c(F)c1)c1nc(N)c(C(=O)c2ccc(OC(F)F)nc2)s1` (racemic) [Example 210, rac-2-[N-[4-amino-5-[6-(difluoromethoxy)pyridine-3-carbonyl]thiazol-2-yl]-4-(difluoromethoxy)-3-fluoro-anilino]propanamide], the IC50 was found to be 69 nM.

Take `CC(C(N)=O)N(c1ccc(OC(F)(F)F)c(Cl)c1)c1nc(N)c(C(=O)c2ccccc2)s1` (racemic) [Example 211, rac-2-[N-(4-amino-5-benzoyl-thiazol-2-yl)-3-chloro-4-(trifluoromethoxy)anilino]propanamide]: the IC50 was found to be 183 nM.

As for `COc1ccc(C(=O)c2sc(N(c3ccc4c(c3)OC(F)(F)O4)C(C)C(N)=O)nc2N)cc1` (racemic) [Example 212, rac-2-[[4-amino-5-(4-methoxybenzoyl)thiazol-2-yl]-(2,2-difluoro-1,3-benzodioxol-5-yl)amino]propanamide], the 50% inhibitory concentration (IC50) is 41 nM.

Take `CC(C(N)=O)N(c1ccc2c(c1)OC(F)(F)O2)c1nc(N)c(C(=O)c2ccc(Cl)cc2)s1` (racemic) [Example 213, rac-2-[[4-amino-5-(4-chlorobenzoyl)thiazol-2-yl]-(2,2-difluoro-1 ,3-benzodioxol-5-yl)amino]propanamide]: the IC50 came out at 42 nM.

For the compound `CC(C(N)=O)N(c1ccc2c(c1)OC(F)(F)O2)c1nc(N)c(C(=O)c2ccc(OC(F)F)cc2)s1` (racemic) [Example 214, rac-2-[[4-amino-5-[4-(difluoromethoxy)benzoyl]thiazol-2-yl]-(2,2-difluoro-1,3-benzodioxol-5-yl)amino]propanamide], the 50% inhibitory concentration (IC50) is 16 nM.

Consider `CC(C(N)=O)N(c1ccc2c(c1)OC(F)(F)O2)c1nc(N)c(C(=O)c2ccncc2)s1` (racemic) [Example 215, rac-2-[[4-amino-5-(pyridine-4-carbonyl)thiazol-2-yl]-(2,2-difluoro-1,3-benzodioxol-5-yl)amino]propanamide], for which the IC50 worked out at 279 nM.

Consider `CC(C(N)=O)N(c1ccc2c(c1)OC(F)(F)O2)c1nc(N)c(C(=O)c2ccc(OC(F)F)nc2)s1` (racemic) [Example 216, rac-2-[[4-amino-5-[6-(difluoromethoxy)pyridine-3-carbonyl]thiazol-2-yl]-(2,2-difluoro-1,3-benzodioxol-5-yl)amino]propanamide], for which the IC50 was found to be 32 nM.

Take `COc1ccc(C(=O)c2sc(N(c3ccc(OC(F)(F)F)c(F)c3)C(C)C(N)=O)nc2N)cc1` (racemic) [Example 217, rac-2-[N-[4-amino-5-(4-methoxybenzoyl)thiazol-2-yl]-3-fluoro-4-(trifluoromethoxy)anilino]propanamide]: the IC50 is 41 nM.

With `CC(C(N)=O)N(c1ccc(OC(F)(F)F)c(F)c1)c1nc(N)c(C(=O)c2ccc(Cl)cc2)s1` (racemic) [Example 218, rac-2-[N-[4-amino-5-(4-chlorobenzoyl)thiazol-2-yl]-3-fluoro-4-(trifluoromethoxy)anilino]propanamide], the concentration for half-maximal inhibition (IC50) turned out to be 64 nM.

For the compound `CC(C(N)=O)N(c1ccc(OC(F)(F)F)c(F)c1)c1nc(N)c(C(=O)c2ccc(OC(F)F)cc2)s1` (racemic) [Example 219, rac-2-[N-[4-amino-5-[4-(difluoromethoxy)benzoyl]thiazol-2-yl]-3-fluoro-4-(trifluoromethoxy)anilino]propanamide], the concentration for half-maximal inhibition (IC50) was found to be 13 nM.

Regarding `CC(C(N)=O)N(c1ccc(OC(F)(F)F)c(F)c1)c1nc(N)c(C(=O)c2ccncc2)s1` (racemic) [Example 220, rac-2-[N-[4-amino-5-(pyridine-4-carbonyl)thiazol-2-yl]-3-fluoro-4-(trifluoromethoxy)anilino]propanamide], the IC50 was determined as 219 nM.

For the compound `CC(C(N)=O)N(c1ccc(OC(F)(F)F)c(F)c1)c1nc(N)c(C(=O)c2ccc(OC(F)F)nc2)s1` (racemic) [Example 221, rac-2-[N-[4-amino-5-[6-(difluoromethoxy)pyridine-3-carbonyl]thiazol-2-yl]-3-fluoro-4-(trifluoromethoxy)anilino]propanamide], the IC50 turned out to be 31 nM.

For `COc1ccc(C(=O)c2sc(N(c3ccc(OC(F)(F)F)c(Cl)c3)C(C)C(N)=O)nc2N)cc1` (racemic) [Example 222, rac-2-[N-[4-amino-5-(4-methoxybenzoyl)thiazol-2-yl]-3-chloro-4-(trifluoromethoxy)anilino]propanamide], the IC50 was determined as 108 nM.

For the compound `CC(C(N)=O)N(c1ccc(OC(F)(F)F)c(Cl)c1)c1nc(N)c(C(=O)c2ccc(Cl)cc2)s1` (racemic) [Example 223, rac-2-[N-[4-amino-5-(4-chlorobenzoyl)thiazol-2-yl]-3-chloro-4-(trifluoromethoxy)anilino]propanamide], the IC50 was 235 nM.

Consider `CC(C(N)=O)N(c1ccc(OC(F)(F)F)c(Cl)c1)c1nc(N)c(C(=O)c2ccc(OC(F)F)cc2)s1` (racemic) [Example 224, rac-2-[N-[4-amino-5-[4-(difluoromethoxy)benzoyl]thiazol-2-yl]-3-chloro-4-(trifluoromethoxy)anilino]propanamide], for which the IC50 is 45 nM.

Turning to `CC(C(N)=O)N(c1ccc(OC(F)(F)F)c(Cl)c1)c1nc(N)c(C(=O)c2ccncc2)s1` (racemic) [Example 225, rac-2-[N-[4-amino-5-(pyridine-4-carbonyl)thiazol-2-yl]-3-chloro-4-(trifluoromethoxy)anilino]propanamide], the half-inhibitory concentration (IC50) turned out to be 252 nM.

Take `CC(C(N)=O)N(c1ccc(OC(F)(F)F)c(Cl)c1)c1nc(N)c(C(=O)c2ccc(OC(F)F)nc2)s1` (racemic) [Example 226, rac-2-[N-[4-amino-5-[6-(difluoromethoxy)pyridine-3-carbonyl]thiazol-2-yl]-3-chloro-4-(trifluoromethoxy)anilino]propanamide]: the IC50 came out at 87 nM.

As to `COc1ccc(N(c2nc(N)c(C(=O)c3ccccc3)s2)C(C)C(N)=O)cn1` (racemic) [Example 227, rac-2-[(4-amino-5-benzoyl-thiazol-2-yl)-(6-methoxy-3-pyridyl)amino]propanamide], the 50% inhibitory concentration (IC50) came to 393 nM.

Regarding `CC(C(N)=O)N(c1ccc(OC(F)(F)F)nc1)c1nc(N)c(C(=O)c2ccccc2)s1` (racemic) [Example 228, rac-2-[(4-amino-5-benzoyl-thiazol-2-yl)-[6-(trifluoromethoxy)-3-pyridyl]amino]propanamide], the half-maximal inhibitory concentration (IC50) came out at 218 nM.

As for `CC(C(N)=O)N(c1ccc(OC(F)F)nc1)c1nc(N)c(C(=O)c2ccccc2)s1` (racemic) [Example 229, rac-2-[(4-amino-5-benzoyl-thiazol-2-yl)-[6-(difluoromethoxy)-3-pyridyl]amino]propanamide], the IC50 was determined as 193 nM.

On to `CC(C(N)=O)N(c1ccc(C(F)(F)F)nc1)c1nc(N)c(C(=O)c2ccccc2)s1` (racemic) [Example 230, rac-2-[(4-amino-5-benzoyl-thiazol-2-yl)-[6-(trifluoromethyl)-3-pyridyl]amino]propanamide], for which the IC50 turned out to be 199 nM.

Turning to `CC(C(N)=O)N(c1ccc(C(F)F)nc1)c1nc(N)c(C(=O)c2ccccc2)s1` (racemic) [Example 231, rac-2-[(4-amino-5-benzoyl-thiazol-2-yl)-[6-(difluoromethyl)-3-pyridyl]amino]propanamide], the concentration for half-maximal inhibition (IC50) came to 662 nM.

Turning to `CC(C(N)=O)N(c1ccc(Cl)nc1)c1nc(N)c(C(=O)c2ccccc2)s1` (racemic) [Example 232, rac-2-[(4-amino-5-benzoyl-thiazol-2-yl)-(6-chloro-3-pyridyl)amino]propanamide], the IC50 was 112 nM.

As to `CC(C(N)=O)N(c1ccc(F)nc1)c1nc(N)c(C(=O)c2ccccc2)s1` (racemic) [Example 233, rac-2-[(4-amino-5-benzoyl-thiazol-2-yl)-(6-fluoro-3-pyridyl)amino]propanamide], the IC50 came out at 267 nM.

Regarding `Cc1ccc(N(c2nc(N)c(C(=O)c3ccccc3)s2)C(C)C(N)=O)cn1` (racemic) [Example 234, rac-2-[(4-amino-5-benzoyl-thiazol-2-yl)-(6-methyl-3-pyridyl)amino]propanamide], the IC50 was determined as 1640 nM.

For the compound `CC(C(N)=O)N(c1ccc(F)c(OC(F)(F)F)c1)c1nc(N)c(C(=O)c2ccccc2)s1` (racemic) [Example 235, rac-2-[N-(4-amino-5-benzoyl-thiazol-2-yl)-4-fluoro-3-(trifluoromethoxy)anilino]propanamide], the half-maximal inhibitory concentration (IC50) was determined as 542 nM.

Consider `CC(C(N)=O)N(c1ccc(Cl)c(OC(F)(F)F)c1)c1nc(N)c(C(=O)c2ccccc2)s1` (racemic) [Example 236, rac-2-[N-(4-amino-5-benzoyl-thiazol-2-yl)-4-chloro-3-(trifluoromethoxy)anilino]propanamide], for which the IC50 was determined as 730 nM.

In the case of `CC(C(N)=O)N(c1ccc(F)c(OC(F)F)c1)c1nc(N)c(C(=O)c2ccccc2)s1` (racemic) [Example 237, rac-2-[N-(4-amino-5-benzoyl-thiazol-2-yl)-3-(difluoromethoxy)-4-fluoro-anilino]propanamide], the IC50 came to 749 nM.

Consider `CC(C(N)=O)N(c1ccc(Cl)c(OC(F)F)c1)c1nc(N)c(C(=O)c2ccccc2)s1` (racemic) [Example 238, rac-2-[N-(4-amino-5-benzoyl-thiazol-2-yl)-4-chloro-3-(difluoromethoxy)anilino]propanamide], for which the half-maximal inhibitory concentration (IC50) was found to be 667 nM.

With `CC(C(N)=O)N(c1nc(N)c(C(=O)c2ccccc2)s1)c1ccc(OC(F)(F)F)cc1F` (racemic) [Example 239, rac-2-[N-(4-amino-5-benzoyl-thiazol-2-yl)-2-fluoro-4-(trifluoromethoxy)anilino]propanamide], the IC50 amounted to 236 nM.

Take `CC(C(N)=O)N(c1nc(N)c(C(=O)c2ccccc2)s1)c1ccc(OC(F)(F)F)cc1Cl` (racemic) [Example 240, rac-2-[N-(4-amino-5-benzoyl-thiazol-2-yl)-2-chloro-4-(trifluoromethoxy)anilino]propanamide]: the IC50 was determined as 1330 nM.

What is called IC50 is the concentration that gives 50% inhibition.
